Measured values: patent US12077503B2, “Substituted cyclic amides and their use as herbicides” (FMC CORPORATION, priority 2015, dated 2024)

Legend:
Type in all cases: in vivo
Kochia (Kochia scoparia) [1] = assay: Test A preemergence; conditions: Bassia scoparia, pre-emergence, 240 h, 0 to 100 scale where 0 is no effect and 100 is complete control, read-out: Kochia plant response rating
In short: (§1)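 Preemergence soil spray on seeded pots or post-emergence spray on 1–2 leaf plants, in loam–sand blend. Greenhouse ~10 d. Visual rating 0–100 against untreated plants.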

[2] = system: barnyardgrass (Echinochloa crus-galli); assay: Test A preemergence; conditions: Echinochloa crus-galli, pre-emergence, 240 h, 0 to 100 scale where 0 is no effect and 100 is complete control, read-out: Barnyardgrass plant response rating
In short: as §1

[3] = system: giant foxtail (Setaria faberii); assay: Test A preemergence; conditions: Setaria faberi, pre-emergence, 240 h, 0 to 100 scale where 0 is no effect and 100 is complete control, read-out: Foxtail, Giant plant response rating
In short: as §1

[4] = system: pigweed (Amaranthus retroflexus); assay: Test A preemergence; conditions: Amaranthus retroflexus, pre-emergence, 240 h, 0 to 100 scale where 0 is no effect and 100 is complete control, read-out: Pigweed plant response rating
[5] = system: ragweed (common ragweed, Ambrosia elatior); assay: Test A preemergence; conditions: Ambrosia artemisiifolia, pre-emergence, 240 h, 0 to 100 scale where 0 is no effect and 100 is complete control, read-out: Ragweed plant response rating
In short: as §1

[6] = system: ryegrass, Italian (Italian ryegrass, Lolium multiflorum); assay: Test A preemergence; conditions: Lolium multiflorum, pre-emergence, 240 h, 0 to 100 scale where 0 is no effect and 100 is complete control, read-out: Ryegrass, Italian plant response rating
In short: as §1

[7] = system: Galium (catchweed bedstraw, Galium aparine); assay: Test A postemergence; conditions: Galium, post-emergence, 240 h, read-out: Galium plant response rating (0 to 100 scale)
In short: as §1

Kochia (Kochia scoparia) [8] = assay: Test A postemergence; conditions: Bassia scoparia, post-emergence, 240 h, read-out: Kochia plant response rating (0 to 100 scale)
In short: as §1

[9] = system: barnyardgrass (Echinochloa crus-galli); assay: Test A postemergence; conditions: Echinochloa crus-galli, post-emergence, 240 h, read-out: Barnyardgrass plant response rating (0 to 100 scale)
In short: as §1

[10] = system: blackgrass (Alopecurus myosuroides); assay: Test A postemergence; conditions: Alopecurus myosuroides, post-emergence, 240 h, read-out: Blackgrass plant response rating (0 to 100 scale)
In short: as §1

corn (Zea mays) = assay: Test A postemergence; conditions: Zea mays, post-emergence, 240 h, read-out: Corn plant response rating (0 to 100 scale)
In short: as §1

[11] = system: giant foxtail (Setaria faberii); assay: Test A postemergence; conditions: Setaria faberi, post-emergence, 240 h, read-out: Foxtail, Giant plant response rating (0 to 100 scale)
In short: as §1

[12] = system: pigweed (Amaranthus retroflexus); assay: Test A postemergence; conditions: Amaranthus retroflexus, post-emergence, 240 h, read-out: Pigweed plant response rating (0 to 100 scale)
In short: as §1

[13] = system: ragweed (common ragweed, Ambrosia elatior); assay: Test A postemergence; conditions: Ambrosia artemisiifolia, post-emergence, 240 h, read-out: Ragweed plant response rating (0 to 100 scale)
In short: as §1

[14] = system: ryegrass, Italian (Italian ryegrass, Lolium multiflorum); assay: Test A postemergence; conditions: Lolium multiflorum, post-emergence, 240 h, read-out: Ryegrass, Italian plant response rating (0 to 100 scale)
In short: as §1

[15] = system: wheat (Triticum aestivum); assay: Test A postemergence; conditions: Triticum aestivum, post-emergence, 240 h, Postemergence, 31 g ai/ha; 0 is no effect, 100 is complete control; read-out: Wheat plant response rating (0 to 100 scale)
In short: as §1

[16] = system: barnyardgrass (Echinochloa crus-galli); assay: Test B flooded paddy test; conditions: Echinochloa crus-galli, 250 g ai/ha, Flood; 0 to 100 scale where 0 is no effect and 100 is complete control; read-out: Barnyardgrass plant response rating
In short: (§2)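 Response scored visually against untreated controls, 0 = no effect and 100 = complete control, 13–15 d after treatment in the greenhouse. Compounds added to paddy water held 3 cm above soil surface. Treatment given at 2-leaf stage.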

[17] = system: ducksalad (Heteranthera limosa); assay: Test B flooded paddy test; conditions: Heteranthera limosa, 250 g ai/ha, Flood; 0 to 100 scale where 0 is no effect and 100 is complete control; read-out: Ducksalad plant response rating
In short: as §2

rice (Oryra sativa) = assay: Test B flooded paddy test; conditions: Oryza sativa, 250 g ai/ha, Flood; 0 to 100 scale where 0 is no effect and 100 is complete control; read-out: Rice plant response rating
In short: as §2

[18] = system: sedge, umbrella (small-flower umbrella sedge, Cyperus difformis); assay: Test B flooded paddy test; conditions: Cyperus difformis, 250 g ai/ha, Flood; 0 to 100 scale where 0 is no effect and 100 is complete control; read-out: Sedge, Umbrella plant response rating
In short: as §2

[19] = 125 g ai/ha, preemergence, visual injury rating, approximately 10 d
[20] = 125 g ai/ha, postemergence, visual injury vs untreated controls after approx. 10 d, 0 = no effect, 100 = complete control
[21] = Postemergence, 31 g ai/ha, 0 is no effect, 100 is complete control

Work on `CN1C[C@H](c2ccc(F)c(Oc3ccccc3)c2)[C@@H](C(=O)Nc2cccc(F)c2F)C1=O` [Compound 1259] yielded a pest or weed control at 31 g/ha (Kochia (Kochia scoparia) [1]; 31 g ai/ha, Preemergence) of 0%, a pest or weed control at 125 g/ha (Kochia (Kochia scoparia) [1]; [19]) of 0% and a pest or weed control at 31 g/ha ([2]; 31 g ai/ha, Preemergence) of 0%. It also gave a pest or weed control at 125 g/ha [2, 19] of 60%, a pest or weed control at 31 g/ha ([3]; 31 g ai/ha, Preemergence) of 40% and a pest or weed control at 125 g/ha [3, 19] of 90%. The pest or weed control at 31 g/ha ([4]; 31 g ai/ha, Preemergence) was 30%, the pest or weed control at 125 g/ha [4, 19] was 30% and the pest or weed control at 31 g/ha ([5]; 31 g ai/ha, Preemergence) was 0%. It also gave a pest or weed control at 125 g/ha [5, 19] of 0%, a pest or weed control at 31 g/ha ([6]; 31 g ai/ha, Preemergence) of 0% and a pest or weed control at 125 g/ha [6, 19] of 30%. The pest or weed control at 125 g/ha [7, 20] was 80%, the pest or weed control at 31 g/ha [7, 21] was 60% and the pest or weed control at 125 g/ha (Kochia (Kochia scoparia) [8]; [20]) was 0%. For the same compound, the pest or weed control at 31 g/ha (Kochia (Kochia scoparia) [8]; [21]) was 0%, the pest or weed control at 125 g/ha [9, 20] was 80% and the pest or weed control at 31 g/ha [9, 21] was 30%. The pest or weed control at 125 g/ha [10, 20] was 0%, the pest or weed control at 31 g/ha [10, 21] was 0% and the plant injury at 125 g/ha (corn (Zea mays); [20]) was 70%. For the same compound, the plant injury at 31 g/ha (corn (Zea mays); [21]) was 0%, the pest or weed control at 125 g/ha [11, 20] was 70% and the pest or weed control at 31 g/ha [11, 21] was 30%. For the same compound, the pest or weed control at 125 g/ha [12, 20] was 60%, the pest or weed control at 31 g/ha [12, 21] was 40% and the pest or weed control at 125 g/ha [13, 20] was 0%. The pest or weed control at 31 g/ha [13, 21] was 0%, the pest or weed control at 125 g/ha [14, 20] was 0% and the pest or weed control at 31 g/ha [14, 21] was 0%. For the same compound, the plant injury at 31 g/ha [15] was 0%, the pest or weed control at 250 g/ha [16] was 0% and the pest or weed control at 250 g/ha [17] was 0%. For the same compound, the pest or weed control at 250 g/ha (rice (Oryra sativa)) was 0% and the pest or weed control at 250 g/ha [18] was 0%.
